# Measured values from paper PMC8280143, “A novel dephosphorylation targeting chimera selectively promoting tau removal in tauopathies” (Signal Transduction and Targeted Therapy, 2021).
# “Also recorded” adds a separate entry of the source.
# Experiments:
# [1] = test system: human tau in HEK293(hTau) cells; assay: Tau dephosphorylation and reduction in hTau-expressed HEK293 cells; format: cell-based; conditions: Supplementary Fig. S4; by contrast to neurons
# Procedure: HEK293 cells with stable expression of wild-type full-length human tau (term as HEK293(hTau) cells), were cultured in DMEM (Hyclone, SH30022.01) containing 10% fetal bovine serum (Biological Industries, 04–001-1ACS) and […] G418 (Thermo Fisher Scientific, 10,131,027) under 5% CO2, 37 °C.
# Cultured cells or hippocampus tissues were collected on ice, and homogenized with RIPA lysis buffer containing 50 mM Tris-HCl, 100 mM NaCl, 1% Triton X-100, 5 mM EDTA, and 1:100 PMSF, and then centrifuged at 12,000 × g for 20 min. The supernatant was collected for the analysis of soluble proteins. In some experiments, the pellets were further incubated with 8% SDS buffer at 37 °C and then ultrasound for 60 times to reach a complete resuspension for the analysis of insoluble tau. Protein concentration was measured through BCA assays (Thermo Fisher). Equal amount of protein from each sample were separated in SDS-PAGE gels, and then transferred onto nitrocellulose or 0.22 μm polyvinylidene fluoride membranes (Merck Millipore). […] Blots were visualized using ECL luminol reagent (P0018FS, Beyotime), and quantified using ImageJ software.
# human tau = assay: Fluorescence polarization competing assay, tau; format: binding; conditions: 2.5 μM tau, 0.1 μM FITC-labeled DEPTAC; 37 °C, 30 min
# Procedure: Purified human tau and PP2A-Bα (PPP2R1A) were obtained from AtaGenix (Wuhan, China), and concentrated using ultrafiltration tubes (Beyotime). In basic binding assays, tau or PP2A-Bα was aliquoted into serial dilutions with a buffer containing 20 mM Tris-HCl, 150 mM NaCl, and 0.5 mM 1,4-Dithiothreitol (pH 7.4), and incubated with 0.1 μM FITC-labeled DEPTAC, FITC-labeled control peptide and FITC (9:1 vol/vol), respectively, in a black 384-well plates (Corning) under 37 °C for 30 min. In competition binding assays, a mixture of 2.5 μM tau or PP2A-Bα and 0.1 μM FITC-labeled DEPTAC were incubated with increasing amounts of unlabeled-DEPTAC under 37 °C for 30 min. Fluorescence intensity was measured by a Biotek Synergy 2 microplate reader with the wavelengths of 480 nm (60) (Ex)/560 nm (40) (Em). The polarization measurements were corrected for background contributions to the measured intensity by subtracting the parallel and perpendicular intensity readings by the vehicle-only wells from the intensity readings for each data point. Fluorescence polarization (P) was calculated by the formula P = (I║ − I┴) / (I║ + I┴), where I║ was the intensity of emitted light polarized parallel to the excitation light, and I┴ was the intensity of emitted light polarized perpendicular to the excitation light.
# human tau (hTau) = assay: Western blotting of phospho-tau and total tau in primary neurons with hTau overexpression; format: cell-based
# Procedure: Lentivirus LV-EF1α-hTau-GFP (3.50E+8 vg/mL) was packaged by OBiO (Shanghai, China) and used for hTau-overexpression (fused with GFP) in cultured primary rat neurons. AAV-CaMKIIα-Cre (diluted to 5.21E + 07 vg/mL) and AAV-EF1α-DIO-mCherry (3.24E + 12 vg/mL) were obtained from BrainVTA (Wuhan, China) and co-injected (1:1 vol/vol) for sparse labeling of dorsal DG neurons. Doxycycline was purchased from Energy Chemical (Shanghai, China). Rabbit polyclonal DEPTAC antibody was prepared by Daian Biotechnology (Wuhan, China). All other reagents including MG132 were purchased from Sigma-Aldrich (USA), unless otherwise specified.
# Primary hippocampal neurons were prepared from E12–E15 days SD rat embryos. Briefly, pregnant rats were acutely executed, hippocampus was dissected on ice and gently minced in DME/F12 (Hyclone) then suspended in 0.125% (vol/vol) trypsin solution at 37 °C for 20 min. Enzymatic activity was stopped by fetal bovine serum. Neurons were initially kept in 10% FBS-containing DME/F12 for 4–6 h, and subsequently cultured in Neurobasal (Hyclone) with 2% B27, 1% glutamax and 1% penicillin–streptomycin (Thermo Fisher Scientific) in dishes pre-coated with 100 μg/mL poly-D-lysine. Serum was gradually removed by replacing half of the medium for each time within the following 2 days. Especially, to inhibit the proteasome-dependent proteolysis, the cultured hippocampal neurons were treated with 5 μM MG132 for 5 h before harvest.
# Cultured cells or hippocampus tissues were collected on ice, and homogenized with RIPA lysis buffer containing 50 mM Tris-HCl, 100 mM NaCl, 1% Triton X-100, 5 mM EDTA, and 1:100 PMSF, and then centrifuged at 12,000 × g for 20 min. The supernatant was collected for the analysis of soluble proteins. In some experiments, the pellets were further incubated with 8% SDS buffer at 37 °C and then ultrasound for 60 times to reach a complete resuspension for the analysis of insoluble tau. Protein concentration was measured through BCA assays (Thermo Fisher). Equal amount of protein from each sample were separated in SDS-PAGE gels, and then transferred onto nitrocellulose or 0.22 μm polyvinylidene fluoride membranes (Merck Millipore). The membranes were blocked with 5% BSA, and incubated in turn with primary and horseradish peroxidase-conjugated secondary antibodies: pS199-Tau (44734G, Invitrogen, 1:2000), pT205-Tau (11108-1, Signalway, 1:2000), pS396-Tau (11102, Signalway, 1:2000), pS404-Tau (11112, Signalway, 1:2000), AT8 (MN1020, Thermo Fisher, 1:1000), Tau5 (ab80579, Abcam, 1:1000), Tau46 (T9450, Sigma, 1:1000), PP2A-Bα (4953, Cell signaling, 1:1000), Phospho-Ser/Thr (ab17464, Abcam1:1000), Ubiquitin (ab7254, Abcam, 1:1000), MAP2 (AB5622, Millipore, 1:2000), hTau-N368 (a generous gift from Prof. Keqiang Ye, Emory University School of Medicine, 1:1000), DEPTAC (developed by Daian Biotechnology, Wuhan, China, 1:500), β-actin (ab6276, Abcam, 1:2000). HRP-conjugated goat anti-rabbit IgG (A0208, Beyotime, 1:3000), HRP-conjugated goat anti-mouse IgG (A0216, Beyotime, 1:3000). Blots were visualized using ECL luminol reagent (P0018FS, Beyotime), and quantified using ImageJ software.
# [2] = primary rat hippocampal neurons, hTau overexpression
# [3] = primary rat neurons, lentivirus-mediated hTau overexpression, dose- and time-dependent, *p < 0.01, n = 3
substance,measurement,setting,value
"(1) YQQYQDATADEQG, originates from the porcine β-tubulin 422–434 for recognizing and binding tau proteins.[5],[6] (2) GSGS, a linker for increasing the flexibility of the peptide.[15] (3) KKVAVVRTPPKSP, for recruiting PP2A-Bα,[16] and (4) RRRRRRRR [DEPTAC, DEPhosphorylation TArgeting Chimera; 38 amino acid residues, C185H314N72O56]",effectiveness in dephosphorylating and reducing tau in hTau-expressed HEK293 cells,[1],relatively limited effectiveness
same,reversal of FITC-DEPTAC/tau polarization by increased amount of unlabeled-DEPTAC,human tau,both were reversed
same,effective concentration of DEPTAC,"human tau (hTau); discussion, only effective above",> 200 µM
same,effective time window post-administration,"human tau (hTau); discussion, only effective within",≤ 3 days
same,concentration of most significant reduction of phospho-tau,human tau (hTau); [2],200 to 300 µM
same,time post administration of most significant reduction of phospho-tau,human tau (hTau); [2],≤ 3 days
same,tau phosphorylation at AT8 (Ser199/Ser202/Thr205) epitope,human tau (hTau); [3],downregulated; also recorded: promoted tau dephosphorylation
same,tau phosphorylation at pS199,human tau (hTau); [3],downregulated; also recorded: promoted tau dephosphorylation
same,tau phosphorylation at pS396,human tau (hTau); [3],downregulated; also recorded: promoted tau dephosphorylation
same,tau phosphorylation at pS404,human tau (hTau); [3],downregulated; also recorded: promoted tau dephosphorylation
same,tau phosphorylation at pT205,human tau (hTau); [3],downregulated; also recorded: promoted tau dephosphorylation
same,total tau probed by Tau5 antibody,human tau (hTau); [3],reduction of total tau; also recorded: reduced total tau
